Results on 16 compounds are retold here after ChEMBL document CHEMBL1129851, “Synthesis and structural optimization of 7-(3,3-disubstituted-1-pyrrolidinyl)-1-cyclopropyl-6-fluoro-1,4-dihydro-8-methoxy-4-oxo-3-quinolinecarboxylic acids as antibacterial agents” (1997).

In brackets after ≈: the same amount, converted by molar mass.

Common to all, as to format: functional
Experiment [1] relates to Staphylococcus aureus. The experiment can be described thus: Minimum inhibitory concentration vitro against Staphylococcus aureus No.88.
In experiment [2] the test system is Streptococcus pneumoniae. The experiment can be described thus: Minimum inhibitory concentration in vitro against Streptococcus pneumoniae Type III.
Experiment [3] concerns Enterococcus faecalis. The experiment can be described thus: Minimum inhibitory concentration in vitro against Enterococcus faecalis LS-101.
Experiment [4] relates to Escherichia coli. Nature of the experiment: Minimum inhibitory concentration in vitro against Escherichia coli NIHJ JC-2.
In experiment [5] the test system is Staphylococcus aureus. The experiment can be described thus: Minimum inhibitory concentration in vitro against Staphylococcus aureus FDA 209P.

What is called MIC is the smallest concentration in the dilution series that meets the test's criterion for growth inhibition. Low readings indicate greater potency, high ones weaker potency. As to `COc1c(N2CCC(CN)(CO)C2)c(F)cc2c(=O)c(C(=O)O)cn(C3CC3)c12` (stereo not drawn), the MIC in experiment [1] worked out at 50 µg/mL (≈ 123 µM); in experiment [2], 0.39 µg/mL (≈ 0.962 µM); in experiment [3], 0.2 µg/mL (≈ 0.493 µM); in experiment [4], 0.78 µg/mL (≈ 1.92 µM); in experiment [5] it was 0.1 µg/mL (≈ 0.247 µM).

With `COc1c(N2CC[C@@](CN)(CF)C2)c(F)cc2c(=O)c(C(=O)O)cn(C3CC3)c12`, the MIC was determined as 0.78 µg/mL (≈ 1.91 µM) in experiment [1]; 0.05 µg/mL (≈ 0.123 µM) in experiment [2]; 0.05 µg/mL (≈ 0.123 µM) in experiment [3]; 0.05 µg/mL (≈ 0.123 µM) in experiment [4]; 0.012 µg/mL (≈ 0.0295 µM) in experiment [5].

In the case of `COc1c(N2CCC(C)(CN)C2)c(F)cc2c(=O)c(C(=O)O)cn(C3CC3)c12` (stereo not drawn), the MIC in experiment [1] is 1.56 µg/mL (≈ 4.01 µM); in experiment [2], 0.05 µg/mL (≈ 0.128 µM); in experiment [3], 0.05 µg/mL (≈ 0.128 µM); in experiment [4], 0.1 µg/mL (≈ 0.257 µM); in experiment [5] it was 0.012 µg/mL (≈ 0.0308 µM).

`C[C@@H]1CN(c2c(F)c(N)c3c(=O)c(C(=O)O)cn(C4CC4)c3c2F)C[C@H](C)N1` [SPARFLOXACIN]: the MIC in experiment [1] was found to be 12.5 µg/mL (≈ 31.9 µM); in experiment [2], 0.1 µg/mL (≈ 0.255 µM); in experiment [3], 0.1 µg/mL (≈ 0.255 µM); in experiment [4] it was 0.025 µg/mL (≈ 0.0637 µM); in experiment [5], 0.05 µg/mL (≈ 0.127 µM).

On to `CNCC1(CF)CCN(c2c(F)cc3c(=O)c(C(=O)O)cn(C4CC4)c3c2OC)C1` (stereo not drawn), for which the MIC was 1.56 µg/mL (≈ 3.7 µM) in experiment [1]; 0.2 µg/mL (≈ 0.475 µM) in experiment [2]; 0.05 µg/mL (≈ 0.119 µM) in experiment [3]; 0.1 µg/mL (≈ 0.237 µM) in experiment [4]; 0.025 µg/mL (≈ 0.0593 µM) in experiment [5].

Regarding `NCC1CN(c2c(F)cc3c(=O)c(C(=O)O)cn(C4CC4)c3c2Cl)CCO1` (stereo not drawn), the figures for the MIC in experiment [2], in experiment [4] and in experiment [5] were 0.1 µg/mL (≈ 0.253 µM), 0.1 µg/mL (≈ 0.253 µM) and 0.012 µg/mL (≈ 0.0303 µM), respectively.

Turning to `NCC1CN(c2c(F)cc3c(=O)c(C(=O)O)cn(C4CC4)c3c2F)CCO1` (stereo not drawn), the values for the MIC in experiment [2], in experiment [4] and in experiment [5] were 0.1 µg/mL (≈ 0.264 µM), 0.1 µg/mL (≈ 0.264 µM) and 0.025 µg/mL (≈ 0.0659 µM), respectively.

For the compound `O=C(O)c1cn(C2CC2)c2cc(N3CCNCC3)c(F)cc2c1=O` [CIPROFLOXACIN], the MIC was above 100 µg/mL in experiment [1], 0.39 µg/mL (≈ 1.18 µM) in experiment [2], 0.2 µg/mL (≈ 0.604 µM) in experiment [3] and 0.2 µg/mL (≈ 0.604 µM) in experiment [5].

Take `COc1c(N2CCC(CF)(CN(C)C)C2)c(F)cc2c(=O)c(C(=O)O)cn(C3CC3)c12` (stereo not drawn): the MIC in experiment [1] was 6.25 µg/mL (≈ 14.4 µM); in experiment [2] it was 0.2 µg/mL (≈ 0.459 µM); in experiment [3], 0.2 µg/mL (≈ 0.459 µM); in experiment [4], 0.39 µg/mL (≈ 0.896 µM); in experiment [5] it was 0.1 µg/mL (≈ 0.23 µM).

For the compound `NC1CCN(c2nc3c(cc2F)c(=O)c(C(=O)O)cn3-c2ccc(F)cc2F)C1` (stereo not drawn) [TOSUFLOXACIN], the MIC was above 25 µg/mL in experiment [1]; 0.1 µg/mL (≈ 0.247 µM) in experiment [2]; 0.05 µg/mL (≈ 0.124 µM) in experiment [3]; 0.025 µg/mL (≈ 0.0618 µM) in experiment [4]; 0.025 µg/mL (≈ 0.0618 µM) in experiment [5].

`NCC1CN(c2cc3c(cc2F)c(=O)c(C(=O)O)cn3C2CC2)CCO1` (stereo not drawn): the MIC in experiment [2] was 0.39 µg/mL (≈ 1.08 µM); in experiment [4], 0.39 µg/mL (≈ 1.08 µM); in experiment [5] it was 0.2 µg/mL (≈ 0.553 µM).

With `COc1c(N2CC[C@](CN)(CF)C2)c(F)cc2c(=O)c(C(=O)O)cn(C3CC3)c12`, the MIC turned out to be 3.13 µg/mL (≈ 7.68 µM) in experiment [1]; 0.05 µg/mL (≈ 0.123 µM) in experiment [2]; 0.05 µg/mL (≈ 0.123 µM) in experiment [3]; 0.05 µg/mL (≈ 0.123 µM) in experiment [4]; 0.012 µg/mL (≈ 0.0295 µM) in experiment [5].

Turning to `COc1c(N2CCC(CN)(CF)C2)c(F)cc2c(=O)c(C(=O)O)cn(C3CC3)c12` (stereo not drawn), the MIC in experiment [1] was 1.56 µg/mL (≈ 3.83 µM); in experiment [2], 0.05 µg/mL (≈ 0.123 µM); in experiment [3], 0.05 µg/mL (≈ 0.123 µM); in experiment [4] it was 0.05 µg/mL (≈ 0.123 µM); in experiment [5], 0.012 µg/mL (≈ 0.0295 µM).

On to `COc1c(N2CCC(O)(CN)C2)c(F)cc2c(=O)c(C(=O)O)cn(C3CC3)c12` (stereo not drawn), for which the MIC was found to be 50 µg/mL (≈ 128 µM) in experiment [1]; 0.2 µg/mL (≈ 0.511 µM) in experiment [2]; 0.2 µg/mL (≈ 0.511 µM) in experiment [3]; 0.39 µg/mL (≈ 0.996 µM) in experiment [4]; 0.1 µg/mL (≈ 0.255 µM) in experiment [5].

In the case of `CC1COc2c(N3CCN(C)CC3)c(F)cc3c(=O)c(C(=O)O)cn1c23` (stereo not drawn) [OFLOXACIN], the MIC in experiment [1] turned out to be 50 µg/mL (≈ 138 µM); in experiment [2] it was 0.78 µg/mL (≈ 2.16 µM); in experiment [3], 0.39 µg/mL (≈ 1.08 µM); in experiment [4], 0.05 µg/mL (≈ 0.138 µM); in experiment [5], 0.2 µg/mL (≈ 0.553 µM).

Take `COc1c(N2CCOC(CN)C2)c(F)cc2c(=O)c(C(=O)O)cn(C3CC3)c12` (stereo not drawn): the MIC in experiment [1] turned out to be 6.25 µg/mL (≈ 16 µM); in experiment [2], 0.2 µg/mL (≈ 0.511 µM); in experiment [3] it was 0.05 µg/mL (≈ 0.128 µM); in experiment [4], 0.2 µg/mL (≈ 0.511 µM); in experiment [5], 0.025 µg/mL (≈ 0.0639 µM).
